In US20080057534A1, “Microbe-sensitive indicators and use of the same” (Kimberly-Clark Worldwide, Inc., priority 2006, published 2008):

Tests used:
[1] = system: aged chicken juice; assay: Dye spots on woven cotton fabric, aged chicken juice
Description: A transparent film covering half of a fresh chicken on a polystyrene tray (from supermarket) was stored at room temperature for three weeks. The pale yellow juices that collected in the polystyrene tray were collected using a pipette and used for tests.
A 47-mg quantity of 1-docosyl-4-(4-hydroxystyryl)-pyridinium bromide (from Aldrich Chemical) was mixed with 10 g dimethylformamide. A small amount of solids remained after shaking and settling. The orange supernatant fluid was dropped onto woven cotton fabric of basis weight (29.2 cm×20.3 cm=6.888 g) to make orange-yellow colored circles. One drop of 1N sodium hydroxide solution was added to one orange-yellow spot on the cotton fabric, changing the color from orange-yellow to a pinkish orange.
The color change was rapid on cotton.

[2] = system: microbe contamination; assay: Microbe-insensitivity of signal graphic colorants
[3] = Reichardt's dye/TMB coated towel, dilute bleach solution; format: physicochemical; details: mixture of Reichardt's dye and TMB on SCOTT paper towel
Description: A mixture of Reichardt's dye and 3,3′,5,5′-tetramethylbenzidine (TMB) was coated onto a SCOTT® paper towel and allowed to air-dry.

[4] = system: E. coli bacteria; assay: Reichardt's dye/TMB coated towel, E. coli suspension drop-wise; details: coating of Reichardt's dye and TMB on SCOTT paper towel
Description: Additionally, a SCOTT® paper towel having a coating of Reichardt's dye and TMB chemistries was exposed to suspension of E. coli bacteria drop-wise. The towel area that came in contact with the bacteria decolorized to a white spot in less than 10 seconds.

[5] = system: S. aureus; assay: Reichardt's dye coatings from different solvents on towels, S. aureus aliquots; details: for color change of coating: 100 μl S. aureus
Description: The behavior of Reichardt's dye coatings made using various different solvents was evaluated. Solutions of Reichardt's dye in acetonitrile, isopropanol, and xylenes were prepared and the solutions were used to coat SCOTT® kitchen rolls towels and allowed to air-dry.

[6] = system: S. aureus (ATCC #6538); assay: Reichardt's dye coated paper, response to bacterial contamination; details: paper brush-coated with 80 mg/10 mL acetonitrile; 100 μL aliquots of 10^7 to 10^4 CFU/mL
Description: (§1) This experiment illustrated the ability of a surface coating of Reichardt's dye to respond to bacterial contamination. A sheet of paper was brush-coated with a Reichardt's dye solution (80 mg/10 mL acetonitrile). To this paper was added 100 μL aliquots of 10^7, 10^6, 10^5, and 10^4CFU/mL E. coli (ATCC #8739) or S. aureus (ATCC #6538) solutions. Water was used as a negative control. The dye color was rapidly discharged when contaminated by both types of bacteria, but more rapidly for the S. aureus. It was later determined that while both bacteria solutions were indeed at 10^7 CFU/mL concentrations, the actual concentration of the S. aureus solution was 7×10^7 CFU/mL compared to 1×10^7 CFU/mL for the E. coli solution.

[7] = system: E. coli (ATCC #8739); assay: as above; details: paper brush-coated with 80 mg/10 mL acetonitrile; 100 μL aliquots of 10^7 to 10^4 CFU/mL
Description: as §1

[8] = system: S. aureus; assay: Reichardt's dye coated self-adhesive stickers, transfer of bacteria by gloved hand; details: 160 mg/10 mL and 80 mg/10 mL acetonitrile coatings; 10^7 CFU/mL S. aureus
Description: A sheet of paper self-adhesive stickers (Avery-Dennison) was also brush-coated with two different concentrations of Reichardt's dye solution (160 mg/10 mL acetonitrile, 80 mg/10 mL acetonitrile). The stickers were applied to the lid and latch mechanism of a Huggies® Wet Wipes box. A gloved hand was used to transfer 10^7 CFU/mL S. aureus to the surface of the stickers.

[9] = De-colorization by acid (model of microbial contamination) and reversal by strong base; format: physicochemical
Description: A CCI Multigloss yellow base pigment (available from Color Converting, Inc. of Hazleton, Pa.) was applied to a white SMS (spunbond/meltblown/spunbond) nonwoven material (available from Kimberly-Clark Corporation of Irving, Tex.) using a standard hand roller. The treated nonwoven was oven-dried at 100° C. for approximately five minutes. A solution of Reichardt's dye was prepared by mixing about 200 mg of Reichardt's dye (obtained from Sigma-Aldrich of St. Louis, Mo.) with approximately 5 g of octanol (obtained from Sigma-Aldrich). This solution was then applied in the shape of a “t” to the dried yellow pigment on the nonwoven material using a clean hand roller. A control material was prepared by applying the Reichardt's dye/octanol mixture in the “t” pattern to a sheet of untreated white SMS nonwoven material. The samples were again oven-dried at 100° C. for approximately five minutes. In previous studies, it has been discovered that strong acids can also cause de-colorization of the dye in a manner that is representative of microbial contamination. Thus, strong acids are sometimes used to model the reaction of a microbe for initial experiments. A drop of pH 2 Aldrich buffer was applied to both the control and test substrates in three places and allowed to react for three minutes. […] An observation was made that the yellow color became even more visible as time passed (presumably due to the complete de-colorization of all dye molecules in the area of the drop as the acid dried).
This experiment illustrated the ability of a strong base to reverse decolorization of Reichardt's dye. Several drops of Reichardt's dye (160 mg in 10 ml of acetonitrile) were pipetted onto a SCOTT® towel and allowed to dry. […] The blue/purple color of Reichardt's dye returned after the 1 N NaOH was added.

[10] = system: aged chicken juice known to have a high bacterial count; assay: Dye coating on ceramic surface with and without TWEEN 80, drop of aged chicken juice; details: 80 mg/10 mL acetonitrile with TWEEN 80 (200 μL)
Description: A solution of Reichardt's dye (80 mg/10 mL acetonitrile) and TWEEN® 80 (200 μL) polyoxyethylene surfactant (from Fischer Scientific, Pittsburgh, Pa.) was prepared. This solution was then used to coat a ceramic surface and allowed to air dry. A second solution of Reichardt's dye (80 mg/10 mL acetonitrile) without surfactant was placed on the surface and allowed to air dry as well. After drying, a drop of aged chicken juice known to have a high bacterial count was placed on each coating area. […] Furthermore, the addition of TWEEN® surfactant allowed for easy removal of the dye from the surface.

[11] = system: bacteria and other microbes in aged urine; assay: Merocyanine dye coated paper towel, aged female human urine
Description: Female human urine was collected and stored in a glass jar at room temperature for 8 days. N-methyl merocyanine dye of the structure below was synthesized as described above. A 0.5-g quantity of the dye was dissolved in 20 ml deionized water and coated onto a SCOTT® kitchen roll paper towel by dipping the towel into the solution, allowing the excess to drip off, and then allowing the coated toweling to dry at ambient conditions. The paper towel was stained a deep orange color by the dye.
As a control, the aged urine was filtered through a 0.2 micron filter to remove bacteria and other microbes.
Female human urine was collected and stored for 24 hours at 37° C. Pooled female urine may be expected to have a bacterial loading of approximately 1×10^5 CFU/ml after storage under these conditions. A 0.5-g quantity of N-methyl merocyanine dye, synthesized as described above, was dissolved in 20 ml deionized water and coated onto a SCOTT® kitchen roll paper towel by dipping the towel into the solution, allowing the excess to drip off, and then allowing the coated toweling to dry at ambient conditions. The paper towel was stained a deep orange color by the dye.

[12] = system: budgie feces suspension in tap water; assay: Merocyanine dye coated paper towel, budgerigar feces suspension; details: coated SCOTT towel, drops of suspension
Description: Budgerigar feces was collected from a caged pet budgie, and shaken in approximately 10 ml of Atlanta city domestic tap water. A 0.5-g quantity of N-methyl merocyanine dye, synthesized as described above, was dissolved in 20 ml deionized water and coated onto a SCOTT® kitchen roll paper towel by dipping the towel into the solution, allowing the excess to drip off, and then allowing the coated toweling to dry at ambient conditions. The paper towel was stained a deep orange color by the dye. […] As a control, Atlanta city domestic tap water was dropped onto a different area of the towel and while the color was diluted somewhat by the water, the area remained orange.

SMILES: CCCCCCCCCCCCCCCCCCCCCC[n+]1ccc(C=Cc2ccc(O)cc2)cc1.[Br-] [1-docosyl-4-(4-hydroxystyryl)-pyridinium bromide]
- color change ([1]; orange-yellow spots on cotton fabric): color change to very pale yellow
- color change ([1]; pinkish-orange areas (dye + NaOH soln.) on cotton): color change from pinkish-orange to very pale yellow

SMILES: Cc1ccc(Nc2ccc(Nc3ccc(C)cc3S(=O)(=O)[O-])c3c2C(=O)c2ccccc2C3=O)c(S(=O)(=O)[O-])c1.[Na+].[Na+] [Acid Green 25]
- sensitivity to microbes [2]: fairly microbe-insensitive

SMILES: Cc1cc(-c2cc(C)c(N)c(C)c2)cc(C)c1N [TMB, 3,3′,5,5′-tetramethylbenzidine]
- color response to bleach [3]: turning orange/yellow color
- bleach indicator color development on bacteria [4]: No orange/yellow color was observed to develop

SMILES: [O-]c1c(-c2ccccc2)cc(-[n+]2c(-c3ccccc3)cc(-c3ccccc3)cc2-c2ccccc2)cc1-c1ccccc1 [Reichardt's dye, 4-(2,4,6-triphenylpyridinium-1-yl)-2,6-diphenylphenolate]
- color change of coating ([5]; acetonitrile solution-based coating): rapid de-colorization
- decolorization in response to microbial contamination ([5]; isopropanol as solvent, dye concentration adjusted): readily and easily observed
- color change of coating ([5]; isopropanol solution-based coating): No visible color change
- color change of coating ([5]; xylenes solution-based coating): No visible color change
- time of de-colorization [6]: < 1 min
- time of de-colorization [7]: < 1 min
- color discharge of coated stickers [8]: rapidly de-colorized
- color response to bleach [3]: de-colorizing
- color change on acid ([9]; 160 mg in 10 ml acetonitrile on SCOTT towel, acetic acid and Aldrich buffer pH 2.0): rapid de-colorization
- reversal of decolorization by base ([9]; drop of 1 N NaOH on acid-decolorized spots): rapid re-colorization
- de-colorization revealing underlying pigment ([9]; drop of pH 2 Aldrich buffer on SMS nonwoven over yellow pigment, three minutes): underlying yellow color was clearly visible
- time to decolorize to a white spot [4]: less than 10 seconds
- de-colorization faster than area without TWEEN surfactant [10]: 20 to 30 s

SMILES: COc1cc(/C=C/c2cc[n+](C)cc2)ccc1[O-] [N-methyl merocyanine dye]
- color change ([11]; urine stored 24 hours at 37° C., approx. 1×10^5 CFU/ml expected): immediate color change from deep orange to pale yellow
- color change ([11]; urine stored 24 hours at 37° C., filtered through 0.2 micron filter (control)): did not cause a color change
- color change ([11]; urine stored 8 days, filtered through 0.2 micron filter (control)): did not cause a color change
- color change ([11]; urine stored at room temperature for 8 days): immediate color change from deep orange to pale yellow
- color change [12]: immediate color change from deep orange to pale yellow
